From patent publication US11673890B2, “N1-pyrazolospiroketone acetyl-CoA carboxylase inhibitors” (Pfizer Inc., priority 2010, dated 2023) come the findings set out here.

Assay [1] has as its target T1, recombinant human ACC1 (rhACC1) (Homo sapiens, UniProt Q13085, DEL44-44).
T1 construct: infected with recombinant baculovirus containing full length human ACC1 cDNA; made in house; host or cells: SF9 insect cells (baculovirus)
Briefly: recombinant hACC1 Transcreener assay (ADP detection FP). The conditions noted are these: recombinant hACC1 Transcreener assay, 50 μM ATP, minimum of n=3; read-out: hACC1. The format is biochemical.

For assay [2], the target named is T2, recombinant human ACC2 (rhACC2) (Homo sapiens, UniProt O00763, V2141I).
T2 construct: a full length Cytomax clone of ACC2 was purchased from Cambridge Bioscience Limited; made in house; host or cells: CHO cells (tetracycline-inducible, pcDNA5 FRT TO-TOPO)
Briefly: recombinant hACC2 Transcreener assay (ADP detection FP). The assay is classed as biochemical. The conditions noted are these: 50 μM ATP, minimum of n=3.

T2 sequence (O00763 whole entry V2141I): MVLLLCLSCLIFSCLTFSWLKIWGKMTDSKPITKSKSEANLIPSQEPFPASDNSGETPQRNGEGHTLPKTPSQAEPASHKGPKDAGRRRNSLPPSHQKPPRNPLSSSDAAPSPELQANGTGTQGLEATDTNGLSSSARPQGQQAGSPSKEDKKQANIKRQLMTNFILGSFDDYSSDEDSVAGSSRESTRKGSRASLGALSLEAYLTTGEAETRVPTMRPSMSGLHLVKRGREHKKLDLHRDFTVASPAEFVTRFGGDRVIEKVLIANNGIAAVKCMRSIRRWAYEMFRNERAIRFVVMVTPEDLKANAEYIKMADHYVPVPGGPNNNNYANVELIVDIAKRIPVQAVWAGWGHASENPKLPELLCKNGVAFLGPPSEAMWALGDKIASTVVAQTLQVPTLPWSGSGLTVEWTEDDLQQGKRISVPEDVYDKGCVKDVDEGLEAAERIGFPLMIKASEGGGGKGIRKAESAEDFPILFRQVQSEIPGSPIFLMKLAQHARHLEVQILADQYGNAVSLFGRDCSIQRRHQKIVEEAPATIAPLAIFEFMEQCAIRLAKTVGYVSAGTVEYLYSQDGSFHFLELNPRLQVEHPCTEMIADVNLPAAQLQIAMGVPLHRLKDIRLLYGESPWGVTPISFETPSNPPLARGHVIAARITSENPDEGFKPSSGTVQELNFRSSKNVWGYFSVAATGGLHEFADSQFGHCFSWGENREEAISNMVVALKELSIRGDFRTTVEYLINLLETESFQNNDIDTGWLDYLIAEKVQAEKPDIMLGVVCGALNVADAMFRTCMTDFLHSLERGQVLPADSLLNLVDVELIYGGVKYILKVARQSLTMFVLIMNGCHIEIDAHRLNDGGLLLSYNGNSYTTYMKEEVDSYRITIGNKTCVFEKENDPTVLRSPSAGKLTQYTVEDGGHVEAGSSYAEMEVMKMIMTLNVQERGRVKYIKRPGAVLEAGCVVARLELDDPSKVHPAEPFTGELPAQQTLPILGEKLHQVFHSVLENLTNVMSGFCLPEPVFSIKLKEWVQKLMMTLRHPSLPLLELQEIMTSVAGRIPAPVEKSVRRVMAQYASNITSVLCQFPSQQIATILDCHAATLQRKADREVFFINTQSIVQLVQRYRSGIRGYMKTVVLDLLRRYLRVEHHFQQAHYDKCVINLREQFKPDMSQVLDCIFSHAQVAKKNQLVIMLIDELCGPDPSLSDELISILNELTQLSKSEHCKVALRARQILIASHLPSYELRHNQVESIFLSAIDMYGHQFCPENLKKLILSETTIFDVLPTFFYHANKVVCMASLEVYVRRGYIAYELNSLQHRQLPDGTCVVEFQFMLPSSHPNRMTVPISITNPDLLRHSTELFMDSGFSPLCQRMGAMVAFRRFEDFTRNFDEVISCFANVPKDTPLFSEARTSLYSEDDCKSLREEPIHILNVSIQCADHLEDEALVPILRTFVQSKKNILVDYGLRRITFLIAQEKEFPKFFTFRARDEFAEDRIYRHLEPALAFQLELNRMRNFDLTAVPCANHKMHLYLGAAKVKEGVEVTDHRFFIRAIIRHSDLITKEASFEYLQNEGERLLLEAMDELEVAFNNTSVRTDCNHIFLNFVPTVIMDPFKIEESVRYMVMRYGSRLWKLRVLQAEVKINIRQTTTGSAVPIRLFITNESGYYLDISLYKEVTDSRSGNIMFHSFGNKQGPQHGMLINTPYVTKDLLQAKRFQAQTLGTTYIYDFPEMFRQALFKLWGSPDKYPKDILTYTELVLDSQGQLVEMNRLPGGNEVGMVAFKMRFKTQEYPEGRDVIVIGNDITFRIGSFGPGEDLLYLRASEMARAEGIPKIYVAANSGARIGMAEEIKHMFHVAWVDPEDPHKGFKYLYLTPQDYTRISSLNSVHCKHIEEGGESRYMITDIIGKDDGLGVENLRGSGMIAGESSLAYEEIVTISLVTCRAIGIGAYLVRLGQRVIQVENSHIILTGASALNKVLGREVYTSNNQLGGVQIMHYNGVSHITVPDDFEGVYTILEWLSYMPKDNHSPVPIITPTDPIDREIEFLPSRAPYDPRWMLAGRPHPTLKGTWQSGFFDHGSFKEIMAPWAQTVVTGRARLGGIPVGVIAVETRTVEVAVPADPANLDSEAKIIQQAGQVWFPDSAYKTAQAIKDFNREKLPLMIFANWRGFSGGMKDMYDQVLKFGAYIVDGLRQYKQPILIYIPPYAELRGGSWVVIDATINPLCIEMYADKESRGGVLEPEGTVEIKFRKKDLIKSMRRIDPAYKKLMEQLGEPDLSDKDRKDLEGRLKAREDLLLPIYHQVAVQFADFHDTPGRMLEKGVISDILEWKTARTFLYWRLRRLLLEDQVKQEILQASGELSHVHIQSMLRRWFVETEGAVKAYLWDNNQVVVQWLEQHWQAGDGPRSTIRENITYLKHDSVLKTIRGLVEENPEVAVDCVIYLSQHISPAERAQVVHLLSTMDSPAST

As for `CC(C)n1ncc2c1C(=O)CC1(CCN(C(=O)c3cc4c(-c5ccc(C(=O)O)cc5)ncnc4[nH]3)CC1)C2` [Example 34, 4-{6-[(1-isopropyl-7-oxo-1,4,6,7-tetrahydro-1′H-spiro[indazole-5,4′-piperidin]-1′-yl)carbonyl]-7H-pyrrolo[2,3-d]pyrimidin-4-yl}benzoic acid], the IC50 in assay [1] is 0.0558 µM; in assay [2], 0.0426 µM.
